The text below walks through data of ChEMBL document CHEMBL3044596, “Stagonolides G-I and modiolide A, nonenolides produced by Stagonospora cirsii, a potential mycoherbicide for Cirsium arvense” (J Nat Prod, 2008).

Converted amounts (≈) assume the structure as drawn. The source made the active and inactive calls. No cut-off for these calls is given here.

The test system of data set [1] is Cirsium arvense. The experiment in a line: Herbicidal activity against Cirsium arvense (Canada thistle) assessed as induction of leaf necrosis at 1 mg/mL measured after 2 days post compound treatment by leaf disk-puncture bioassay. It is filed as functional, organism-based.
In data set [2] the test system is Cichorium intybus. Nature of the data set: Inhibition of root growth in Cichorium intybus (chicory) seedlings soaked in 1 mg/mL compound solutions for 1 hr relative to untreated control. The format is functional.
In a further data set the test system is Radish. Nature of the data set: Phytotoxicity activity against Raphanus sativus (radish) assessed as leaf necrotic lesion diameter at 1 mg/mL measured after 72 hr post compound treatment by leaf disk-puncture bioassay. It is filed as organism-based. The conditions noted are these: in vivo.
For a further data set, the system named is Elymus repens. Nature of the data set: Phytotoxicity activity against Elymus repens (couch grass) assessed as leaf necrotic lesion diameter at 1 mg/mL measured after 72 hr post compound treatment by leaf disk-puncture bioassay. It is filed as organism-based. The note with it: in vivo.
The subject of data set [3] is Cichorium intybus. The experiment in a line: Phytotoxicity activity against Cichorium intybus (chicory) assessed as leaf necrotic lesion diameter at 1 mg/mL measured after 72 hr post compound treatment by leaf disk-puncture bioassay. It is filed as organism-based. The conditions noted are these: in vivo.
In a further data set the test system is Solanum lycopersicum. Nature of the data set: Phytotoxicity activity against Solanum lycopersicum (tomato) assessed as leaf necrotic lesion diameter at 1 mg/mL measured after 72 hr post compound treatment by leaf disk-puncture bioassay. The format is organism-based. The note with it: in vivo.
Data set [4] deals with Cirsium arvense. The experiment in a line: Herbicidal activity against Cirsium arvense (Canada thistle) assessed as induction of leaf necrosis measured after 2 days post compound treatment by leaf disk-puncture bioassay. The format is functional. The conditions noted are these: 48 h.
For the next data set, the system named is Trifolium pratense. The experiment in a line: Phytotoxicity activity against Trifolium pratense (red clover) assessed as leaf necrotic lesion diameter at 1 mg/mL measured after 72 hr post compound treatment by leaf disk-puncture bioassay. It is filed as organism-based. The note with it: in vivo.
Data set [5] has as its system Cirsium arvense. The experiment in a line: Herbicidal activity against Cirsium arvense (Canada thistle) assessed as leaf necrotic lesion diameter at 1 mg/mL measured after 72 hr post compound treatment by leaf disk-puncture bioassay. It is filed as functional.
A further data set relates to Zea mays. The experiment in a line: Phytotoxicity activity against Zea mays (maize) assessed as leaf necrotic lesion diameter at 1 mg/mL measured after 72 hr post compound treatment by leaf disk-puncture bioassay. The conditions noted are these: in vivo. The format is organism-based.
The subject of a further data set is Aegopodium podagraria. The experiment in a line: Phytotoxicity activity against Aegopodium podagraria (bishop's weed) assessed as leaf necrotic lesion diameter at 1 mg/mL measured after 72 hr post compound treatment by leaf disk-puncture bioassay. It is filed as organism-based. The conditions noted are these: in vivo.

On to `C[C@@H]1C[C@H](O)/C=C/[C@@H](O)/C=C\C(=O)O1`, for which, in the data set with Cirsium arvense [1], the outcome was inactive.
The same measure, in the same setting: next, `C[C@@H]1C[C@H](O)/C=C\[C@@H](O)/C=C\C(=O)O1`: “inactive”.
Still for that read-out and setting: next, `C[C@H]1OC(=O)CC[C@H](O)C/C=C\[C@H]1O`: “inactive”.
Turning to `C[C@@H]1OC(=O)/C=C\[C@@H](O)/C=C/[C@@H]2O[C@H]12` [Stagonolide H], the “growth inhibition (GI)” value in the data set on Cichorium intybus [2] came out at 85%. Besides, the outcome with Cirsium arvense [1] was Active. In addition, the Activity was less than 4 mm in the data set on Radish; less than 4 mm in the data set on Elymus repens; less than 4 mm in the data set on Cichorium intybus [3]; less than 4 mm in the data set with Solanum lycopersicum; less than 4 mm with Trifolium pratense; 7.5 mm with Cirsium arvense [5]. Moreover, the Activity with Zea mays and with Aegopodium podagraria was less than 4 mm in each case. Further, the MIC in the data set with Cirsium arvense [4] came out at 150 µM (≈ 29.4 µg/mL).
